Source: patent publication US20160282364A1, “ASSAY FOR INSULIN-DEGRADING ENZYME (IDE) INHIBITORS” (PRESIDENT AND FELLOWS OF HARVARD COLLEGE, priority 2013, published 2016)
“Also recorded” adds a separate entry of the source.

What was measured:
[1] = test system: lean and DIO C57BL/6J mice; experiment: Oral glucose tolerance test (OGTT); type: in vivo, mouse; settings: lean (80 mg/kg) and DIO (60 mg/kg) mice, single i.p. dose 30 min before glucose gavage 3.0 g/kg, vs vehicle
Protocol: Wild-type lean C57BL/6J and diet-induced obese (DIO) C57BL/6J age-matched male mice were purchased from Jackson Laboratories, and used at ages 14-16, and 24-26 weeks respectively (>20 weeks of high-fat diet for the DIO mice). GCGR^/ mice were bred from heterozygous mice and used between 11 and 17 weeks. […] Blood glucose was measured from tail nicks using AccuCheck (Aviva) meters.
In vivo studies, general information. Wild-type C57BL/6J and diet-induced obese (DIO) C57BL/6J age-matched male adult mice were purchased from Jackson Laboratories. The age range was 13 to 15 weeks for lean mice, and 24 to 26 weeks for DIO mice. All animals were individually housed on a 14-h light, 10-h dark schedule at the Biology Research Infrastructure (BRI), Harvard University. Cage enrichment included cotton bedding and a red plastic hut. […]
Glucose tolerance tests GTT and blood glucose measurements. […] Blood glucose was measured using AccuCheck® meters (Aviva) from blood droplets obtained from a small nick at the tip of the tail, at timepoints −45, 0, 15, 30, 45, 60, 90 and 120 min with reference to the time of glucose injection. The area of the blood glucose response profile curve corresponding to each animal was calculated by the trapezoid method^17, using as reference each individual baseline blood glucose measurement prior to glucose administration (t=0). […]

C57BL/6J mice = experiment: Tolerability of inhibitor doses in mice; type: in vivo; settings: 80 mg/kg lean, 60 mg/kg DIO mice, i.p.
From the text: In vivo studies, general information. Wild-type C57BL/6J and diet-induced obese (DIO) C57BL/6J age-matched male adult mice were purchased from Jackson Laboratories. The age range was 13 to 15 weeks for lean mice, and 24 to 26 weeks for DIO mice. All animals were individually housed on a 14-h light, 10-h dark schedule at the Biology Research Infrastructure (BRI), Harvard University. Cage enrichment included cotton bedding and a red plastic hut. Water and food were available ad libitum, consisting respectively of normal chow (Prolab® RHM 3000) or high-fat diet (60 kcal % fat, D12492, Research Diets Inc.). All animal care and experimental procedures were in accordance with the standing committee on the Use of Animals in Research and Teaching at Harvard University, the guidelines and rules established by the Faculty of Arts and Sciences' Institutional Animal Care and Use Committee (IACUC), and the National Institutes of Health Guidelines for the Humane Treatment of Laboratory Animals. Glucagon-receptor knock-out (GCGR^−/−) mice were housed with a 14-h light and 10-h dark schedule and treated in accordance with the guidelines and rules approved by the IACUC at Albert Einstein College of Medicine, NY. Power analysis to determine animal cohort numbers was based on preliminary results and literature precedent, usually requiring between 5 and 8 animals per group. […]

Wild-type mice = experiment: Pyruvate tolerance test (PTT); type: in vivo, mouse; settings: vs controls
Protocol: Blood collection and plasma hormone measurements. Blood was collected in EDTA-coated tubes (BD Microtainer®) from trunk bleeding (˜500 μL) after CO2-euthanasia for all hormone assays. The plasma was immediately separated from red blood cells by centrifugation 10 min at 1800 g, aliquoted, frozen over dry ice and stored at −80° C. […] Values are reported as mean±S.E.M. Statistics were performed using a two-tail Student's t-test, and significance levels shown in the figures are *p<0.05 versus vehicle control group or **p<0.01 versus vehicle control group.
RT-PCR analysis of liver gluconeogenesis markers phosphoenolpyruvate carboxykinase (PEPCK) and glucose-6-phosphatase (G6Pase). Total RNA was isolated from liver samples (˜100 mg) using TRIzol® reagent (Invitrogen, 1 mL/100 mg sample), followed by spin-column purification (RNeasy® kit, Qiagen) and on-column DNAse treatment (Qiagen) according to the manufacturer's instructions. RNA concentrations were determined by UV spectrophotometry (NanoDrop). One microgram of total RNA was used for reverse transcription with oligo(dT) primers (SuperScript® III First-Strand Synthesis SuperMix, Life Technologies) according to the manufacturer's instructions. Quantitative PCR reactions included 1 μL of cDNA diluted 1:100, 0.4 μM primers, 2× SYBR Green PCR Master Mix (Invitrogen) in 25 μL total volume, and were read out by a CFX96TM Real-Time PCR Detection System (BioRad). Transcript levels were determined using two known primer pairs^18,19 for each gene of interest (Table 6), which were normalized against tubulin and beta-actin transcripts (ΔΔCT method), and expressed relative to the lowest sample. Duplicate control assays without reverse transcriptase treatment were run for each RNA preparation and primer set used. Statistics were performed using a two-tail Student's t-test, and significance levels shown in the figures are *p<0.05 versus vehicle control group or **p<0.01 versus vehicle control group.

Q: With `NCCCC[C@@H]1NC(=O)/C=C/C(=O)N[C@H](C(N)=O)CCCCNC(=O)[C@@H](Cc2ccc(C(=O)c3ccccc3)cc2)NC(=O)[C@H](CC2CCCCC2)NC1=O` [Compound 6bK] as the compound, how does the oral glucose tolerance [1] read?
A: significantly improved; also recorded: improved glucose tolerance

Q: What about the tolerability (C57BL/6J mice) of the same compound?
A: well tolerated

Q: And the plasma glucagon (Wild-type mice; 60 min post-PTT, pyruvate 2.0 g/kg i.p.)?
A: significantly elevated

Q: What about the “expression of liver gluconeogenic markers” value (Wild-type mice; 60 min post-PTT) of the same compound?
A: increased; also recorded: elevated

Q: And the plasma insulin levels (Wild-type mice; 60 min post-PTT)?
A: similar

Q: And the “blood glucose during the PTT” value (Wild-type mice; pyruvate 2.0 g/kg i.p.)?
A: significantly lower
